Source: ChEMBL document CHEMBL5053512, “Discovery and Preclinical Pharmacology of an Oral Bromodomain and Extra-Terminal (BET) Inhibitor Using Scaffold-Hopping and Structure-Guided Drug Design” (J Med Chem, 2021)

Columns and labels:
[1] = Metabolic stability in human liver microsomes assessed as parent compound remaining at 0.5 uM after 10 mins; type: ADME, Microsome; conditions: read-out: Stability
[2] = Permeability coefficient across basolateral to apical side in human Caco-2 cells; type: ADME, cell-based; conditions: read-out: permeability
[3] = Permeability coefficient of the compound by PAMPA; type: ADME; conditions: read-out: permeability
[4] = Metabolic stability in mouse liver microsomes assessed as parent compound remaining at 0.5 uM after 10 mins; type: ADME, Microsome; conditions: read-out: Stability
[5] = Permeability coefficient across apical to basolateral side in human Caco-2 cells; type: ADME, cell-based; conditions: read-out: permeability
[6] = Inhibition of c-MYC expression in human JJN3R cells measured after 4 hrs; type: functional, cell-based; conditions: JJN-3R
[7] = Cmax in mouse at 30 mg/kg, po; type: ADME, organism-based; parameters: dose 30 mg/kg, route po; conditions: in vivo
[8] = AUC (0 to 7 hrs) in mouse at 30 mg/kg, po; type: ADME, organism-based; parameters: time < 7 hr, dose 30 mg/kg, route po; conditions: in vivo
[9] = Antitumour activity against human JJN3R cells measured after 72 hrs by MTS assay; type: functional, cell-based; conditions: JJN-3R
[10] = biological target: Bromodomain-containing protein 4 (Homo sapiens, UniProt O60885); assay: Inhibition of human BRD4 (1 to 477 residues) measured after 60 mins by TR-FRET assay
[11] = Efflux ratio of permeability in human Caco-2 cells; type: ADME, cell-based
[12] = biological target: Voltage-gated inwardly rectifying potassium channel KCNH2 (Homo sapiens, UniProt Q12809); assay: Inhibition of human ERG by flux assay
Voltage-gated inwardly rectifying potassium channel KCNH2, sequence (Q12809 whole entry): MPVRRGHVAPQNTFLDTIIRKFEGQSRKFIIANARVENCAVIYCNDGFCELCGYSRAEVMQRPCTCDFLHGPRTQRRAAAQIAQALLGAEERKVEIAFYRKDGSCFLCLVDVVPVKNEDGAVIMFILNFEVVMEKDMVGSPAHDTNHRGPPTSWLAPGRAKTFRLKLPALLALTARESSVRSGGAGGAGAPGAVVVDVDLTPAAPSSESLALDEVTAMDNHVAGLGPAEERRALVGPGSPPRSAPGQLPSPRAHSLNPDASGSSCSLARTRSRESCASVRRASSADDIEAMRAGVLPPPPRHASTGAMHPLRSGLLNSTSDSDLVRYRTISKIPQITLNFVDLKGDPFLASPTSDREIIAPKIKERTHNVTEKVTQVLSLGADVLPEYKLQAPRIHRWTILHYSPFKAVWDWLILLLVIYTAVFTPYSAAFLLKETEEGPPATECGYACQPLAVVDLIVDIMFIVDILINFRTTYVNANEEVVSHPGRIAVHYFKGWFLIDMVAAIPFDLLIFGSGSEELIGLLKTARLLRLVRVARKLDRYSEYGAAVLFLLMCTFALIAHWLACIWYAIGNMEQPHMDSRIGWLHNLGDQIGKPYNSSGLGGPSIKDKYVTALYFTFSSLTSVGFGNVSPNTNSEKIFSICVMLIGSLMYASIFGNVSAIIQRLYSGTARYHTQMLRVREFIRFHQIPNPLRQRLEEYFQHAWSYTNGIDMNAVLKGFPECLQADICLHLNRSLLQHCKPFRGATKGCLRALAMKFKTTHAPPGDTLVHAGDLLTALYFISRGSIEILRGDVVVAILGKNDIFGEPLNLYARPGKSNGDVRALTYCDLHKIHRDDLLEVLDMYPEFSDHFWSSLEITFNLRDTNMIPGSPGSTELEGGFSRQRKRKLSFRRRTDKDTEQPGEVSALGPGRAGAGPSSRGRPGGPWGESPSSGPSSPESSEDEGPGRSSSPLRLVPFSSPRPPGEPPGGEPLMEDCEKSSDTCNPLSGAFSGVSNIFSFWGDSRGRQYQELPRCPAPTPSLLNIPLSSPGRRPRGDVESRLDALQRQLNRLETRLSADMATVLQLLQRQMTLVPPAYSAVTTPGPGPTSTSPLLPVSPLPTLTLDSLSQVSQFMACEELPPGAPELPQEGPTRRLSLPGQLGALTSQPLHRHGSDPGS

[13] = biological target: Cytochrome P450 3A4 (Homo sapiens, UniProt P08684); assay: Inhibition of CYP3A4 (unknown origin); type: ADME
Cytochrome P450 3A4, sequence (P08684 whole entry): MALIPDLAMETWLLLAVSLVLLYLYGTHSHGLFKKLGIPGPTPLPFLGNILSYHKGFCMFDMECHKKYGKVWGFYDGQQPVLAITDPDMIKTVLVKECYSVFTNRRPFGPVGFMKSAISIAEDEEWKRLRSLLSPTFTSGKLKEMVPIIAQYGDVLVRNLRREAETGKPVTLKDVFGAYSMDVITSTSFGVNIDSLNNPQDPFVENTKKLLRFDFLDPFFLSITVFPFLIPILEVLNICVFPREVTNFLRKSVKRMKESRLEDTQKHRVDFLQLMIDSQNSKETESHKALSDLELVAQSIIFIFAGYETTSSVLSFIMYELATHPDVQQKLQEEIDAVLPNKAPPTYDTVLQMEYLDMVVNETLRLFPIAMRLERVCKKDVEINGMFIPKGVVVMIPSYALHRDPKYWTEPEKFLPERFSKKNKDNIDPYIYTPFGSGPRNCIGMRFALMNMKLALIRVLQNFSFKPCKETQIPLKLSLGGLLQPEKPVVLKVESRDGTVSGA

[14] = biological target: Bromodomain-containing protein 3 (Homo sapiens, UniProt Q15059); assay: Inhibition of human BRD3 measured by TR-FRET assay
Bromodomain-containing protein 3, sequence (Q15059 whole entry): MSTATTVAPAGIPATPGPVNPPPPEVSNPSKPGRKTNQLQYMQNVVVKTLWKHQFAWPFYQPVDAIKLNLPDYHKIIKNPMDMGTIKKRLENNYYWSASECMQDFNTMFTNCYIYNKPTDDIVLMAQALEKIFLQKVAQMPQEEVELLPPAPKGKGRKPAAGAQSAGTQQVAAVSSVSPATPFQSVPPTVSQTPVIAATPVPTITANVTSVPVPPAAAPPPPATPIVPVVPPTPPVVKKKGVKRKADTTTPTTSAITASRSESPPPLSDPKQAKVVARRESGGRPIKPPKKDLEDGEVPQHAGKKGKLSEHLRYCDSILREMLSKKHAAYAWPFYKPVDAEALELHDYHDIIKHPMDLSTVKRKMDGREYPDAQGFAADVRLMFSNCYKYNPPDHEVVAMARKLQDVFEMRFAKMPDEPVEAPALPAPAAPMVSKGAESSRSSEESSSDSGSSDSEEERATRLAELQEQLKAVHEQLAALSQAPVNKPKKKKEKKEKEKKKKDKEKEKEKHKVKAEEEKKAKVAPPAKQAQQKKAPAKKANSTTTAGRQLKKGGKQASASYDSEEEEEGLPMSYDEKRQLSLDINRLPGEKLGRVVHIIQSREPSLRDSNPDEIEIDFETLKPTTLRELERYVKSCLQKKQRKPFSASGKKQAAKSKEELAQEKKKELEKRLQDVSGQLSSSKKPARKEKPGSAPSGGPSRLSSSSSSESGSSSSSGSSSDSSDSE

[15] = biological target: Cytochrome P450 1A2 (Homo sapiens, UniProt P05177); assay: Inhibition of CYP1A2 (unknown origin); type: ADME
[16] = biological target: Cytochrome P450 2C9 (Homo sapiens, UniProt P11712); assay: Inhibition of CYP2C9 (unknown origin); type: ADME
Cytochrome P450 2C9, sequence (P11712 whole entry): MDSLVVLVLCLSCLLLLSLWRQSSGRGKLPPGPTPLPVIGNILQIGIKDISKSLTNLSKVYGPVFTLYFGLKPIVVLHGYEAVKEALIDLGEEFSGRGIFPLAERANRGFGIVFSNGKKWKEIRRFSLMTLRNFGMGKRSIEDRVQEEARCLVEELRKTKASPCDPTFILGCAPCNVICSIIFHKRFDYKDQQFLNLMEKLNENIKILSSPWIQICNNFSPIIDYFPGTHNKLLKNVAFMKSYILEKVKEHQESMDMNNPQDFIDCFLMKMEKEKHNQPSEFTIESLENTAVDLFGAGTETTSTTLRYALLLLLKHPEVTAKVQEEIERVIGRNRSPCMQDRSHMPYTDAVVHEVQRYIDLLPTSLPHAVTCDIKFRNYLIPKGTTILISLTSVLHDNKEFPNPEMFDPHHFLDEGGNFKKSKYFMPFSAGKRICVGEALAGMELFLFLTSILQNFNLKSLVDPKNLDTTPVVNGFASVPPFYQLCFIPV

[17] = biological target: Bromodomain-containing protein 2 (Homo sapiens, UniProt P25440); assay: Inhibition of human BRD2 measured by TR-FRET assay
Bromodomain-containing protein 2, sequence (P25440 whole entry): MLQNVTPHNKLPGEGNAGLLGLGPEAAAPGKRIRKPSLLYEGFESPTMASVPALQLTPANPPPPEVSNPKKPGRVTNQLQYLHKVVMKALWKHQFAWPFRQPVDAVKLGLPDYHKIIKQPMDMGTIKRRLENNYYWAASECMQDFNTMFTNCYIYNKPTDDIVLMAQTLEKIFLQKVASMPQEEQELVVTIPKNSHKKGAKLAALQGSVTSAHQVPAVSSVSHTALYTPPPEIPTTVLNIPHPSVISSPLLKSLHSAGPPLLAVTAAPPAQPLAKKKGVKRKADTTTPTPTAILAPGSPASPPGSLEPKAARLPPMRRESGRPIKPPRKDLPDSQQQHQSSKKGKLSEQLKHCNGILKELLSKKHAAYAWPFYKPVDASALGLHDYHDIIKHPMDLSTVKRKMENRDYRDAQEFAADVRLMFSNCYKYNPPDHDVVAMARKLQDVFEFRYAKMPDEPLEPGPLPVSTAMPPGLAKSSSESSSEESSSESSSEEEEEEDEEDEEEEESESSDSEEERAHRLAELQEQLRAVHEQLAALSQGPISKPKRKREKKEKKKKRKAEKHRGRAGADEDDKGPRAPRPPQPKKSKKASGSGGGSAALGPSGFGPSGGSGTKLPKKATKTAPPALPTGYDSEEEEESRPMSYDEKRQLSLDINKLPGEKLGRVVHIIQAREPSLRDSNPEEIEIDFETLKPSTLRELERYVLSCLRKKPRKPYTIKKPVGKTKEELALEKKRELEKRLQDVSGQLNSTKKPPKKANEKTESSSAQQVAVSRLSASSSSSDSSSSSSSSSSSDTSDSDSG

[18] = biological target: Cytochrome P450 2C19 (Homo sapiens, UniProt P33261); assay: Inhibition of CYP2C19 (unknown origin); type: ADME
Cytochrome P450 2C19, sequence (P33261 whole entry): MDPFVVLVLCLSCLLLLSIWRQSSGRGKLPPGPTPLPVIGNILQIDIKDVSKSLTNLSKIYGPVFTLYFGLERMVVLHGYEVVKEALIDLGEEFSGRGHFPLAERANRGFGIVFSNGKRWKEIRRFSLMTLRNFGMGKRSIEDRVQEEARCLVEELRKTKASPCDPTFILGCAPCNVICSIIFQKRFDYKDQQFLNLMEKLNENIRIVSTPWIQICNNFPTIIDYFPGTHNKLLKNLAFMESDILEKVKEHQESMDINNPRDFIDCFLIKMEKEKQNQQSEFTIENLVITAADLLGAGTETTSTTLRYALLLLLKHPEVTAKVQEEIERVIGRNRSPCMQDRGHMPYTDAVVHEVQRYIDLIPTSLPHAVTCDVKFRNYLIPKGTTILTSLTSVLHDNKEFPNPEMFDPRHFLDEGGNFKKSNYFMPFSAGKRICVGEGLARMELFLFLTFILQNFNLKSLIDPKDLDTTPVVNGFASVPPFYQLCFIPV

[19] = biological target: Cytochrome P450 2D6 (Homo sapiens, UniProt P10635); assay: Inhibition of CYP2D6 (unknown origin); type: ADME
Cytochrome P450 2D6, sequence (P10635 whole entry): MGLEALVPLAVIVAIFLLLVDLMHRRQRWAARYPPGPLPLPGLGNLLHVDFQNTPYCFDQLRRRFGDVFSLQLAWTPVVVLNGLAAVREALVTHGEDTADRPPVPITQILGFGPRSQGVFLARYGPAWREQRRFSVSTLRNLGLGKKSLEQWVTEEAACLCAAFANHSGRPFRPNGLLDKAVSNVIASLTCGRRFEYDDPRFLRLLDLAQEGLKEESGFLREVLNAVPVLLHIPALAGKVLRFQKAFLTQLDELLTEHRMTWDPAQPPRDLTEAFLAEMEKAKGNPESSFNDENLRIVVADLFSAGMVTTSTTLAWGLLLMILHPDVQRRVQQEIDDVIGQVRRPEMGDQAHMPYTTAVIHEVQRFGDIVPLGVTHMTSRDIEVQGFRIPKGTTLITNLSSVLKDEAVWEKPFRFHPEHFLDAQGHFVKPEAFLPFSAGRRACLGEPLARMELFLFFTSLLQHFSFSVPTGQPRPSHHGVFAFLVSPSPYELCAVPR

Cc1noc(C)c1-c1cc(C(N)=O)c2c3ccc(C(C)(C)O)cc3n(Cc3ccccc3)c2c1
remaining at 10 min, 0.5 µM [1]: 58% | Papp B→A [2]: 20.2 ×10⁻⁶ cm/s | Papp [3]: 84.9 ×10⁻⁶ cm/s | remaining at 10 min, 0.5 µM [4]: 62% | Papp A→B [5]: 7.6 ×10⁻⁶ cm/s | IC50 [6]: 0.0062 µM | Cmax [7]: 7.1 µM | AUC(0-t) at 7 h [8]: 27.1 µM·h | IC50 [9]: 0.035 µM

Cc1noc(C)c1-c1cc(C(N)=O)c2c3cc(C(=O)N4C[C@@H](C)O[C@@H](C)C4)ccc3n(Cc3ccccc3)c2c1
remaining at 10 min, 0.5 µM [1]: 9% | Papp [3]: 80.9 ×10⁻⁶ cm/s | remaining at 10 min, 0.5 µM [4]: 19% | IC50 [6]: 0.013 µM | IC50 [10]: 0.0042 µM | IC50 [9]: 0.038 µM

Cc1noc(C)c1-c1cc(C(N)=O)c2c3cc(C(C)(C)O)ccc3n(Cc3ccccc3)c2c1
Papp [3]: 74.9 ×10⁻⁶ cm/s | IC50 [6]: 0.023 µM | IC50 [10]: 0.0045 µM | IC50 [9]: 0.095 µM

Cc1noc(C)c1-c1cc(C(N)=O)c2c3ccc(C(C)(C)O)cc3n([C@@H](c3ccccc3)C3CCOCC3)c2c1
remaining at 10 min, 0.5 µM [1]: 24% | Papp [3]: 58.4 ×10⁻⁶ cm/s | remaining at 10 min, 0.5 µM [4]: 0% | IC50 [6]: 0.01 µM | IC50 [10]: 0.0054 µM | IC50 [9]: 0.046 µM

Cc1noc(C)c1-c1cc(C(N)=O)c2c3ccc(C(C)(C)O)cc3n(CC3CCOCC3)c2c1
remaining at 10 min, 0.5 µM [1]: 75% | Papp [3]: 40.2 ×10⁻⁶ cm/s | remaining at 10 min, 0.5 µM [4]: 55% | IC50 [6]: 0.023 µM | IC50 [10]: 0.0095 µM | IC50 [9]: 0.128 µM

Cc1noc(C)c1-c1cc(C(N)=O)c2c3ccc(C(C)(C)O)cc3n([C@H](c3ccccc3)C3CCOCC3)c2c1
remaining at 10 min, 0.5 µM [1]: 52% | Papp B→A [2]: 36.4 ×10⁻⁶ cm/s | Papp [3]: 67.1 ×10⁻⁶ cm/s | remaining at 10 min, 0.5 µM [4]: 20% | Papp A→B [5]: 3.4 ×10⁻⁶ cm/s | IC50 [6]: 0.0009 µM | IC50 [10]: 0.001 µM | Cmax [7]: 0.4 µM | AUC(0-t) at 7 h [8]: 1 µM·h | IC50 [9]: 0.0031 µM

Cc1nocc1-c1cc(C(N)=O)c2c(c1)c1ccc(C(=O)N3C[C@@H](C)O[C@@H](C)C3)cc1n2CC1CC1
IC50 [6]: 0.268 µM | IC50 [10]: 0.131 µM | IC50 [9]: 2.96 µM

Cc1noc(C)c1-c1cc(C(N)=O)c2c3ccc(C(C)(C)O)cc3n([C@H](c3ccc(F)cc3)C3CCOCC3)c2c1
efflux ratio [11]: 6.1 | remaining at 10 min, 0.5 µM [1]: 52% | Papp [3]: 70.2 ×10⁻⁶ cm/s | remaining at 10 min, 0.5 µM [4]: 33% | IC50 [6]: 0.0004 µM | IC50 [10]: 0.0019 µM | Cmax [7]: 0.9 µM | AUC(0-t) at 7 h [8]: 4.3 µM·h | IC50 [9]: 0.0031 µM

Cc1noc(C)c1-c1cc(C(N)=O)c2[nH]c3cc(C(=O)N4CCOCC4)ccc3c2c1
IC50 [6]: 1.16 µM | IC50 [10]: 0.712 µM | IC50 [9]: > 2.5 µM

Cc1nnn(C)c1-c1cc(C(N)=O)c2c(c1)c1ccc(C(=O)N3C[C@@H](C)O[C@@H](C)C3)cc1n2CC1CC1
IC50 [6]: 0.291 µM | IC50 [10]: 0.035 µM | IC50 [9]: 0.796 µM

Cc1noc(C)c1-c1cnc2c3ccc(C(C)(C)O)cc3n([C@H](c3ccccc3)C3CCOCC3)c2c1
efflux ratio [11]: 0.9 | remaining at 10 min, 0.5 µM [1]: 54% | IC50 [12]: 51 µM | IC50 [13]: > 20 µM | Papp B→A [2]: 22.9 ×10⁻⁶ cm/s | Papp [3]: 98.4 ×10⁻⁶ cm/s | remaining at 10 min, 0.5 µM [4]: 42% | Papp A→B [5]: 26.3 ×10⁻⁶ cm/s | IC50 [14]: 0.0019 µM | IC50 [15]: > 20 µM | IC50 [6]: 0.0015 µM | IC50 [16]: 4.1 µM | IC50 [10]: 0.0019 µM | Cmax [7]: 9.2 µM | AUC(0-t) at 7 h [8]: 45.7 µM·h | IC50 [17]: 0.0017 µM | IC50 [18]: 1.5 µM | IC50 [9]: 0.0084 µM | IC50 [19]: > 20 µM

Cc1noc(C)c1-c1cc(C(N)=O)c2c(c1)c1ccc(C(=O)N3C[C@@H](C)O[C@@H](C)C3)cc1n2CC1CC1
IC50 [6]: 0.051 µM | IC50 [10]: 0.023 µM | IC50 [9]: 0.525 µM

Cc1noc(C)c1-c1cc(C(N)=O)c2c(c1)c1ccc(C(=O)N3CCOCC3)cc1n2CC1CC1
IC50 [6]: 0.093 µM | IC50 [10]: 0.039 µM | IC50 [9]: 0.414 µM

Cc1n[nH]c(C)c1-c1cc(C(N)=O)c2c(c1)c1ccc(C(=O)N3C[C@@H](C)O[C@@H](C)C3)cc1n2CC1CC1
IC50 [6]: 1.24 µM | IC50 [10]: 0.53 µM | IC50 [9]: 7.6 µM

Cc1noc(C)c1-c1cc(C(N)=O)c2c3ccc(C(C)(C)O)cc3n(C(c3ccccc3)c3ccccc3)c2c1
remaining at 10 min, 0.5 µM [1]: 13% | Papp [3]: 68.2 ×10⁻⁶ cm/s | remaining at 10 min, 0.5 µM [4]: 26% | IC50 [6]: 0.0039 µM | IC50 [10]: 0.0015 µM | IC50 [9]: 0.011 µM

Cc1oncc1-c1cc(C(N)=O)c2c(c1)c1ccc(C(=O)N3C[C@@H](C)O[C@@H](C)C3)cc1n2CC1CC1
IC50 [6]: 0.645 µM | IC50 [10]: 0.292 µM | IC50 [9]: 3.53 µM

Cc1noc(C)c1-c1cc(C(N)=O)c2c3cc(C(=O)N4C[C@@H](C)O[C@@H](C)C4)ccc3n(CC3CC3)c2c1
IC50 [6]: 0.259 µM | IC50 [10]: 0.069 µM | IC50 [9]: 0.422 µM
